The numbers were not newly measured in US20260272898A1 (Bayer Aktiengesellschaft, priority 2024, published 2026), which cites them from elsewhere.

For the data set the following is noted: in vivo.

In the case of `CCOc1ncc(C)c2c1[C@H](c1ccc(C#N)cc1OC)C(C(N)=O)=C(C)N2` [finerenone, (4S)-4-(4-cyano-2-methoxyphenyl)-5-ethoxy-2,8-dimethyl-1,4-dihydro-1,6-naphthyridine-3-carboxamide], the half-life result is given as “short”.
